Test results: ChEMBL document CHEMBL1155686, “Luteolin, a compound with adenosine A(1) receptor-binding activity, and chromone and dihydronaphthalenone constituents from Senna siamea” (J Nat Prod, 2000)

The compounds below were run against T1, Adenosine receptor A1 (Rattus norvegicus, UniProt P25099) (assay: Displacement of [3H]DPCPX from adenosine A1 receptor in rat brain cortex membrane).
T1 sequence (P25099 whole entry): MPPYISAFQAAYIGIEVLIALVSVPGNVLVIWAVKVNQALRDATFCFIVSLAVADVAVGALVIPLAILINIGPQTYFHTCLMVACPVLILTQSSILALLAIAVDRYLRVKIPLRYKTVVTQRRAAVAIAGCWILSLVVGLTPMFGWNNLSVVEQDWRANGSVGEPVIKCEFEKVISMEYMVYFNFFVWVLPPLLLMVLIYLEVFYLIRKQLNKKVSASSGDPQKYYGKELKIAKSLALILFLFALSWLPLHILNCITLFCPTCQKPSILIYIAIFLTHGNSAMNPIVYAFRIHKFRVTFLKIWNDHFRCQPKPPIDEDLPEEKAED
Assay type: cell membranes

Structure (SMILES)	Ki [µM]
O=c1cc(-c2ccc(O)c(O)c2)oc2cc(O)cc(O)c12 [LUTEOLIN]	1.66
CC(=O)[C@@H]1c2cc(O)cc(O)c2C(=O)C[C@@]1(C)O (relative stereo)	> 50

Now from value to compound:

Ki [µM]	Structure (SMILES)
> 50	CC(=O)Cc1cc(O)cc2oc(CO)cc(=O)c12
> 50	CC(=O)Cc1cc(O)cc2oc(C)cc(=O)c12
> 50	CC(=O)[C@@H]1c2cc(O)cc(O)c2C(=O)C[C@]1(C)O (relative stereo)

What follows are compounds tested against T1, Adenosine receptor A1 (assay: Displacement of [3H]DPCPX from adenosine A1 receptor in rat brain cortex membrane in presence of 0.5 mM GTP).
Assay type: cell membranes

Structure (SMILES)	Ki [µM]
O=c1cc(-c2ccc(O)c(O)c2)oc2cc(O)cc(O)c12 [LUTEOLIN]	1.55
